Laboratory results: patent US4450272A, “Antiatherosclerotic 1-piperazine-thicarboxamides” (American Cyanamid Company, priority 1982, dated 1984)

Columns and labels:
[1] = system: serum lipids (sterol, triglycerides); test: Ability to lower lipid levels in mammals (serum cholesterol and triglycerides in rats, 5 days in diet); type: in vivo, male rats COBS, CD, SD strain; conditions: male rats, oral, 0.1% compound in diet, vs control; for inhibition in vivo at 0.1 % in diet: Rattus norvegicus, 120 h, read-out: % Lowering of Serum Triglycerides
Protocol: The compounds were also tested for their ability to lower lipid levels in mammals. The compounds were administered orally admixed with diet to groups of four male rats COBS, CD, SD strain from Charles River Breeding Laboratories, Inc., Wilmington, Mass. A control group of eight rats was maintained on the diet alone; test groups were maintained on the diet plus the indicated percentage of test compound by weight. After 5 days treatment, serum cholesterol and triglyceride concentrations were determined by direct enzymatic procedures using a Centrifichem® System 400 autoanalyzer (Union Carbide Co.). Cholesterol concentrations were determined by the combined cholesterol esterase-cholesterol oxidase procedure of Roelschlau et. al., Zeit. Klin. Chem. Klin. Biochem., 12, 226 (1974). Triglycerides were determined by the combined method of lipase catalyzed hydrolysis of triglycerides to glycerol and free fatty acids [Bucolo, G. and David, H., Clin. Chem., 19, 476 (1973) and Wahlefeld, A. W., in "Methods of Enzymatic Analysis", Vol. 4, Bergmeyer, H. U., Editor, Academic Press, New York, N.Y. (1974), pp. 1831-1835] and the enzymatic oxidation of the glycerol which leads to the production of colored formazan [Stavropoulos, W. S. and Crouch, R. D., Clin. Chem., 20, No. 7, 857 (1974)]. […] Compounds which produce statistically significant lowering of either sterol or triglycerides are considered to be active.

[2] = molecular target: T1, fatty acyl CoA:cholesterol acyl transferase (ACAT) (Rattus norvegicus, UniProt O70536); test: Inhibition of ACAT (fatty acyl CoA:cholesterol acyl transferase) in rat adrenal supernatant; type: biochemical; conditions: rat adrenals, final concentration 5.2 μg./ml., pH 7.4, 37° C.
T1 construct: The supernatant, containing the microsomal fraction, served as the source of the cholesterol-esterifying enzyme; from tissue; host or cells: rat adrenals, 1000 x g supernatant containing the microsomal fraction
T1 sequence (O70536 1-545): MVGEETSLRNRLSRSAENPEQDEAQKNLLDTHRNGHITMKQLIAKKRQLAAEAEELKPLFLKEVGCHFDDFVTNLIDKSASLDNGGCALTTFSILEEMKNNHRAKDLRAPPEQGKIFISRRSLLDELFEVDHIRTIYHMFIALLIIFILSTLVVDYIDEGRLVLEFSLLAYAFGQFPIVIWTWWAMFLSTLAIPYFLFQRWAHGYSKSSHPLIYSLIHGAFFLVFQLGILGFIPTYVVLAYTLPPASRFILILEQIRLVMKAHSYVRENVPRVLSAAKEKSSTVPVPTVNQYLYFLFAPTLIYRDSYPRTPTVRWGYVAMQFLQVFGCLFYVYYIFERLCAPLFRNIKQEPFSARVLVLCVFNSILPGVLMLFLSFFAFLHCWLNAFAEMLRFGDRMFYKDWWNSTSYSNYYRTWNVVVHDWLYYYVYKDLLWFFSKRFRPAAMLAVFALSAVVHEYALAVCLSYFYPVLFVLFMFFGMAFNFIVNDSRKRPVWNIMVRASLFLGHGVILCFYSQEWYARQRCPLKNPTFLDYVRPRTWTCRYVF
Protocol: Compounds were tested for their ability to inhibit ACAT according to the following procedure:
Rat adrenals were homogenized in 0.2 M monobasic potassium phosphate buffer, pH 7.4, and centrifuged at 1000 times gravity for 15 minutes at 5° C. The supernatant, containing the microsomal fraction, served as the source of the cholesterol-esterifying enzyme, fatty acyl CoA:cholesterol acyl transferase (ACAT). A mixture comprising 50 parts of adrenal supernatant, 10 parts of albumin (BSA) (50 mg./ml.), 3 parts of test compound (final concentration 5.2 μg./ml.) and 500 parts of buffer was preincubated at 37° C. for 10 minutes. After treatment with 20 parts of oleoyl CoA (^14 C -0.4 μCi) the mixture was incubated at 37° C. for 10 minutes. A control mixture, omitting the test compound, was prepared and treated in the same manner. The lipids from the incubation mixture were extracted into an organic solvent and separated by thin-layer chromatography. The cholesterol ester fraction was counted in a scintillation counter. This procedure is a modification of that described by Hashimoto, et. al., Life Scie., 12 (Part II), 1-12 (1973).
Compounds which produce a statistically significant inhibition of the ACAT enzyme are considered to be active.

aortic sterol content = test: Ability to decrease aortic sterol content without effecting serum sterol, cholesterol-fed cockerels; type: in vivo, Day-old-cockerels; parameters: key: Active: Compounds which produce statistically significant decreases in the aortic sterol content without having an effect on serum sterol are considered to be active; conditions: 525 mg. test compound and 20 g. cholesterol per kg. of diet, 14 days
Protocol: The compounds were further tested for their ability to decrease aortic sterol content without effecting serum sterol.
Day-old-cockerels were placed on diets consisting of pullet starter mash supplemented with either 20 g. cholesterol (control group) or 20 g. cholesterol and 525 mg. test compound (drug-treated group) per kg. of diet.
For the control diet 20 g. of cholesterol is dissolved in 200 ml. of chloroform, mixed into one kg. of pullet starter mash and then the chloroform is removed by evaporation.
For the drug-treatment group 525 mg. of the test compound is dissolved in 100 ml. of chloroform, mixed into a diet prepared as described above and then the chloroform is evaporated.
The cockerels were housed three per cage and given water and their respective diet ad libitum for 14 days. Blood was collected by cardiac puncture and the serum was saponified [Trinder, P., Analyst, 77, 321 (1952)] and extracted and the cholesterol content determined [Zlatkis, A. et. al., J. Lab. Clin. Med., 41, 486 (1953)]. The aortae were removed, cleaned of adventitial tissue and the sterol content determined according to the above procedures. Compounds which produce statistically significant decreases in the aortic sterol content without having an effect on serum sterol are considered to be active.

| inhibition at 5.2 µg/mL [2] | SMILES | inhibition in vivo at 0.1 % in diet [1] | Result (decrease of aortic sterol content without effect on serum sterol) (aortic sterol content) | % Lowering of Serum Sterol [1] |
| --- | --- | --- | --- | --- |
| – | S=C(Nc1c(Cl)cccc1Cl)N1CCN(c2cnccn2)CC1 [2',6'-Dichloro-4-(2-pyrazinyl)-1-piperazinethiocarboxanilide] | 37% | – | – |
| – | S=C(Nc1ccccc1Cl)N1CCN(c2cnccn2)CC1 [2'-Chloro-4-(2-pyrazinyl)-1-piperazinethiocarboxanilide] | 49% | – | – |
| – | Fc1ccccc1NC(=S)N1CCN(c2cnccn2)CC1 [2'-Fluoro-4-(2-pyrazinyl)-1-piperazinethiocarboxanilide] | 21% | – | – |
| 31% | S=C(Nc1ccc(Cl)cc1)N1CCN(c2cnccn2)CC1 [4'-Chloro-4-(2-pyrazinyl)-1-piperazinethiocarboxanilide] | 49% | – | – |
| – | N#Cc1ccc(NC(=S)N2CCN(c3cnccn3)CC2)cc1 [4'-Cyano-4-(2-pyrazinyl)-1-piperazinethiocarboxanilide] | 55% | Active | – |
| – | Fc1ccc(NC(=S)N2CCN(c3cnccn3)CC2)cc1 [4'-Fluoro-4-(2-pyrazinyl)-1-piperazinethiocarboxanilide] | 37% | – | – |
| 56% | CC(C)c1ccc(NC(=S)N2CCN(c3cnccn3)CC2)cc1 [4'-Isopropyl-4-(2-pyrazinyl)-1-piperazinethiocarboxanilide] | – | – | – |
| – | CCNC(=S)N1CCN(c2cnccn2)CC1 [N--Ethyl-4-(2-pyrazinyl)-1-piperazinethiocarboxamide] | – | Active | – |
| – | S=C(Nc1ccccc1)N1CCN(c2cnccn2)CC1 [N--Phenyl-4-(2-pyrazinyl)-1-piperazinethiocarboxamide] | 52% | Active | – |
| 31% | S=C(NC1CCCCC1)N1CCN(c2cnccn2)CC1 [N-Cyclohexyl-4-(2-pyrazinyl)-1-piperazinethiocarboxamide] | 43% | – | – |
| 48% | CCNC(=S)N1CCN(c2ccc3ccccc3n2)CC1 [N-Ethyl-4-(2-quinolyl)-1-piperazinethiocarboxamide] | – | – | – |
| 40% | CCNC(=S)N1CCN(c2cncc(OC)n2)CC1 [N-Ethyl-4-(6-methoxy-2-pyrazinyl)-1-piperazinethiocarboxamide] | 38% | – | – |
| – | CNC(=S)N1CCN(c2cnccn2)CC1 [N-Methyl-4-(2-pyrazinyl)-1-piperazinethiocarboxamide] | 31% | Active | – |
| 33% | S=C(NCCc1ccccc1)N1CCN(c2cnccn2)CC1 [N-Phenethyl-4-(2-pyrazinyl)-1-piperazinethiocarboxamide] | – | – | 16% |
